Source: patent US20040248765A1, “Tumour targeting prodrugs activated by metallo matrixproteinases” (priority 2001, published 2004)
Where a SMILES comes first, the peptide text is derived from it. [ ]: non-standard residue; d: D form. The star is where a group is joined. NH(CH2)3NH(1-anthraquinonyl) = O=C1c2ccccc2C(=O)c2c(NCCCN*)cccc21; Nle = CCCC[C@H](N)C(=O)O; Nva = CCC[C@H](N)C(=O)O; Mob = COc1ccc(C*)cc1

Question: Which melting point does the source give for `NCC(=O)N1CCC[C@@H]1C(=O)NCCCNc1cccc2c1C(=O)c1ccccc1C2=O.O=C(O)C(F)(F)F` here?
Answer: 156 to 162 °C

Question: With `NCC(=O)N[C@@H](Cc1ccccc1)C(=O)N1CCC[C@@H]1C(=O)NCCCNc1cccc2c1C(=O)c1ccccc1C2=O.O=C(O)C(F)(F)F` as the molecule, how does the melting point read?
Answer: 128 to 130 °C

Question: Which melting point does the source give for `CCC[C@H](N)C(=O)NCC(=O)N[C@@H](CC(C)C)C(=O)N1CCC[C@H]1C(=O)NCCCNc1cccc2c1C(=O)c1ccccc1C2=O.O=C(O)C(F)(F)F` (H-[Nva]GLP-{NH(CH2)3NH(1-anthraquinonyl)}) here?
Answer: 210 °C

Question: For `CC(C)C[C@H](NC(=O)[C@@H](N)Cc1ccccc1)C(=O)NCC(=O)N1CCC[C@H]1C(=O)NCCCNc1cccc2c1C(=O)c1ccccc1C2=O.O=C(O)C(F)(F)F`, which melting point is on record?
Answer: 164 to 168 °C

Question: With `CSC[C@H](NC(=O)[C@H](C)NC(=O)[C@H](C)N)C(=O)NCC(=O)N[C@@H](CC(C)C)C(=O)N1CCC[C@H]1C(=O)NCCCNc1cccc2c1C(=O)c1ccccc1C2=O.O=C(O)C(F)(F)F` (H-AAC(Me)GLP-{NH(CH2)3NH(1-anthraquinonyl)}) as the molecule, how does the melting point read?
Answer: 162 °C

Question: For `CC(C)C[C@H](NC(=O)[C@@H](N)Cc1ccccc1)C(=O)N1CCC[C@H]1C(=O)NCCCNc1cccc2c1C(=O)c1ccccc1C2=O.O=C(O)C(F)(F)F`, which melting point is on record?
Answer: 184 to 188 °C

Question: For `CCC[C@H](NC(=O)[C@H](C)N)C(=O)N[C@@H](CC(C)C)C(=O)NCC(=O)N[C@@H](CC(C)C)C(=O)N1CCC[C@H]1C(=O)NCCCNc1cccc2c1C(=O)c1ccccc1C2=O.O=C(O)C(F)(F)F` (H-A[Nva]LGLP-{NH(CH2)3NH(1-anthraquinonyl)}), which melting point is on record?
Answer: 192 °C

Question: With `CC(C)C[C@H](NC(=O)[C@H](Cc1ccc(O)cc1)NC(=O)[C@H](C)N)C(=O)NCC(=O)N[C@@H](CC(C)C)C(=O)N1CCC[C@H]1C(=O)NCCCNc1cccc2c1C(=O)c1ccccc1C2=O.O=C(O)C(F)(F)F` (H-AYLGLP-{NH(CH2)3NH(1-anthraquinonyl)}) as the molecule, how does the melting point read?
Answer: 182 °C

Question: Which melting point does the source give for `CCC[C@H](NC(=O)[C@H](Cc1ccc(O)cc1)NC(=O)[C@H](C)NC(=O)[C@@H](C)N)C(=O)NCC(=O)N[C@@H](CC(C)C)C(=O)N1CCC[C@H]1C(=O)NCCCNc1cccc2c1C(=O)c1ccccc1C2=O.O=C(O)C(F)(F)F` here?
Answer: 190 °C

Question: Which melting point does the source give for `CC(C)C[C@H](NC(=O)[C@H](C)NC(=O)[C@H](C)NC(=O)[C@H](N)CCCCN)C(=O)NCC(=O)N[C@@H](CC(C)C)C(=O)N1CCC[C@H]1C(=O)NCCCNc1cccc2c1C(=O)c1ccccc1C2=O.O=C(O)C(F)(F)F.O=C(O)C(F)(F)F` here?
Answer: 196 °C

Question: With `CC[C@H](C)[C@H](NC(=O)[C@H](Cc1ccccc1)NC(=O)[C@H](CC(C)C)NC(=O)[C@@H](C)N)C(=O)NCC(=O)N[C@@H](Cc1ccccc1)C(=O)N1CCC[C@@H]1C(=O)NCCCNc1cccc2c1C(=O)c1ccccc1C2=O.O=C(O)C(F)(F)F` as the molecule, how does the melting point read?
Answer: 144 to 146 °C

Question: For `CSC[C@H](NC(=O)[C@H](Cc1ccc(O)cc1)NC(=O)[C@H](C)NC(=O)[C@@H](C)N)C(=O)NCC(=O)N[C@@H](CC(C)C)C(=O)N1CCC[C@H]1C(=O)NCCCNc1cccc2c1C(=O)c1ccccc1C2=O.O=C(O)C(F)(F)F`, which melting point is on record?
Answer: 195 °C

Question: With `CC(C)C[C@H](NC(=O)[C@H](C)N)C(=O)N1CCC[C@H]1C(=O)NCCCNc1cccc2c1C(=O)c1ccccc1C2=O.O=C(O)C(F)(F)F` as the molecule, how does the melting point read?
Answer: 170 to 174 °C

Question: With `CC(C)C[C@H](NC(=O)CNC(=O)[C@H](C)NC(=O)[C@@H](C)N)C(=O)N[C@@H](C)C(=O)N[C@@H](CC(C)C)C(=O)N1CCC[C@H]1C(=O)NCCCNc1cccc2c1C(=O)c1ccccc1C2=O.O=C(O)C(F)(F)F` as the molecule, how does the melting point read?
Answer: 192 °C

Question: For `CCC[C@H](NC(=O)[C@H](C)N)C(=O)NCC(=O)N[C@@H](CC(C)C)C(=O)N1CCC[C@H]1C(=O)NCCCNc1cccc2c1C(=O)c1ccccc1C2=O.O=C(O)C(F)(F)F` (H-A[Nva]GLP-{NH(CH2)3NH(1-anthraquinonyl)}), which melting point is on record?
Answer: 198 °C

Question: With `COc1ccc(CSC[C@H](NC(=O)[C@H](C)NC(=O)[C@H](C)N)C(=O)NCC(=O)N[C@@H](CC(C)C)C(=O)N2CCC[C@H]2C(=O)NCCCNc2cccc3c2C(=O)c2ccccc2C3=O)cc1.O=C(O)C(F)(F)F` (H-AAC(Mob)GLP-{NH(CH2)3NH(1-anthraquinonyl)}) as the molecule, how does the melting point read?
Answer: 182 °C

Question: For `CC(C)C[C@H](NC(=O)[C@H](Cc1ccccc1)NC(=O)[C@@H](N)CC(C)C)C(=O)N1CCC[C@H]1C(=O)NCCCNc1cccc2c1C(=O)c1ccccc1C2=O.O=C(O)C(F)(F)F` (H-LFLP-{NH(CH2)3NH(1-anthraquinonyl)}), which melting point is on record?
Answer: 184 to 186 °C

Question: With `CCC[C@H](N)C(=O)N[C@@H](CC(C)C)C(=O)NCC(=O)N[C@@H](CC(C)C)C(=O)N1CCC[C@H]1C(=O)NCCCNc1cccc2c1C(=O)c1ccccc1C2=O.O=C(O)C(F)(F)F` (H-[Nva]LGLP-{NH(CH2)3NH(1-anthraquinonyl)}) as the molecule, how does the melting point read?
Answer: 189 °C

Question: Which melting point does the source give for `CC(C)C[C@H](NC(=O)[C@H](Cc1ccccc1)NC(=O)CN)C(=O)NCC(=O)N1CCC[C@H]1C(=O)NCCCNc1cccc2c1C(=O)c1ccccc1C2=O.O=C(O)C(F)(F)F` here?
Answer: 157 °C

Question: Which melting point does the source give for `CCC[C@H](NC(=O)[C@H](Cc1ccc(O)cc1)NC(=O)[C@H](C)N)C(=O)NCC(=O)N[C@@H](CC(C)C)C(=O)N1CCC[C@H]1C(=O)NCCCNc1cccc2c1C(=O)c1ccccc1C2=O.O=C(O)C(F)(F)F` (H-AY[Nva]GLP-{NH(CH2)3NH(1-anthraquinonyl)}) here?
Answer: 182 °C

Question: With `CCC[C@H](NC(=O)[C@H](C)NC(=O)[C@@H](C)N)C(=O)N[C@@H](CC(C)C)C(=O)NCC(=O)N[C@@H](CC(C)C)C(=O)N1CCC[C@H]1C(=O)NCCCNc1cccc2c1C(=O)c1ccccc1C2=O.O=C(O)C(F)(F)F` as the molecule, how does the melting point read?
Answer: 174 to 178 °C

Question: With `CC(C)C[C@H](NC(=O)CNC(=O)[C@H](C)N)C(=O)N[C@@H](C)C(=O)N[C@@H](CC(C)C)C(=O)N1CCC[C@H]1C(=O)NCCCNc1cccc2c1C(=O)c1ccccc1C2=O.O=C(O)C(F)(F)F` (H-AGLALP-{NH(CH2)3NH(1-anthraquinonyl)}) as the molecule, how does the melting point read?
Answer: 185 °C

Question: For `NCCCNc1cccc2c1C(=O)c1ccccc1C2=O`, which melting point is on record?
Answer: 196 °C

Question: For `CC(C)C[C@H](N)C(=O)NCC(=O)N1CCC[C@H]1C(=O)NCCCNc1cccc2c1C(=O)c1ccccc1C2=O.O=C(O)C(F)(F)F`, which melting point is on record?
Answer: 172 to 174 °C

Question: For `CC(C)C[C@H](NC(=O)[C@H](Cc1ccccc1)NC(=O)CN)C(=O)NCC(=O)N1CCC[C@@H]1C(=O)NCCCNc1cccc2c1C(=O)c1ccccc1C2=O.O=C(O)C(F)(F)F`, which melting point is on record?
Answer: 154 to 156 °C

Question: Which melting point does the source give for `CCC[C@H](NC(=O)CN)C(=O)N1CCC[C@H]1C(=O)NCCCNc1cccc2c1C(=O)c1ccccc1C2=O.O=C(O)C(F)(F)F` here?
Answer: 196 °C

Question: Which melting point does the source give for `CC[C@H](C)[C@H](N)C(=O)NCC(=O)N[C@@H](Cc1ccccc1)C(=O)N1CCC[C@@H]1C(=O)NCCCNc1cccc2c1C(=O)c1ccccc1C2=O.O=C(O)C(F)(F)F` here?
Answer: 120 to 126 °C

Question: For `CCC[C@H](NC(=O)[C@@H](N)Cc1ccc(O)cc1)C(=O)NCC(=O)N[C@@H](CC(C)C)C(=O)N1CCC[C@H]1C(=O)NCCCNc1cccc2c1C(=O)c1ccccc1C2=O.O=C(O)C(F)(F)F` (H-Y[Nva]GLP-{NH(CH2)3NH(1-anthraquinonyl)}), which melting point is on record?
Answer: 174 °C

Question: For `CC[C@H](C)[C@H](NC(=O)[C@H](Cc1ccccc1)NC(=O)[C@@H](N)CC(C)C)C(=O)NCC(=O)N[C@@H](Cc1ccccc1)C(=O)N1CCC[C@@H]1C(=O)NCCCNc1cccc2c1C(=O)c1ccccc1C2=O.O=C(O)C(F)(F)F`, which melting point is on record?
Answer: 168 to 170 °C

Question: For `CCC[C@H](NC(=O)CNC(=O)[C@@H](N)CC(C)C)C(=O)N1CCC[C@H]1C(=O)NCCCNc1cccc2c1C(=O)c1ccccc1C2=O.O=C(O)C(F)(F)F` (H-LG[Nva]P-{NH(CH2)3NH(1-anthraquinonyl)}), which melting point is on record?
Answer: 172 to 176 °C

Question: With `CC(C)C[C@H](NC(=O)[C@H](C)NC(=O)[C@@H](N)CC(C)C)C(=O)N1CCC[C@H]1C(=O)NCCCNc1cccc2c1C(=O)c1ccccc1C2=O.O=C(O)C(F)(F)F` (H-LALP-{NH(CH2)3NH(1-anthraquinonyl)}) as the molecule, how does the melting point read?
Answer: 178 to 180 °C

Question: For `CC(C)C[C@H](NC(=O)CNC(=O)[C@H](C)N)C(=O)N[C@@H](Cc1ccccc1)C(=O)N[C@@H](CC(C)C)C(=O)N1CCC[C@H]1C(=O)NCCCNc1cccc2c1C(=O)c1ccccc1C2=O.O=C(O)C(F)(F)F` (H-AGLFLP-{NH(CH2)3NH(1-anthraquinonyl)}), which melting point is on record?
Answer: 186 °C

Question: For `CCC[C@H](NC(=O)CNC(=O)[C@H](CC(C)C)NC(=O)[C@H](C)NC(=O)[C@H](C)NC(=O)[C@@H](C)N)C(=O)N1CCC[C@H]1C(=O)NCCCNc1cccc2c1C(=O)c1ccccc1C2=O.O=C(O)C(F)(F)F`, which melting point is on record?
Answer: 192 to 196 °C

Question: With `COc1ccc(CSC[C@H](N)C(=O)NCC(=O)N[C@@H](CC(C)C)C(=O)N2CCC[C@H]2C(=O)NCCCNc2cccc3c2C(=O)c2ccccc2C3=O)cc1.O=C(O)C(F)(F)F` (H-C(Mob)GLP-{NH(CH2)3NH(1-anthraquinonyl)}) as the molecule, how does the melting point read?
Answer: 182 °C

Question: Which melting point does the source give for `CCCC[C@H](N)C(=O)NCC(=O)N[C@@H](CC(C)C)C(=O)N1CCC[C@H]1C(=O)NCCCNc1cccc2c1C(=O)c1ccccc1C2=O.O=C(O)C(F)(F)F` (H-[Nle]GLP-{NH(CH2)3NH(1-anthraquinonyl)}) here?
Answer: 169 °C

Question: Which melting point does the source give for `CSC[C@H](NC(=O)[C@H](C)NC(=O)[C@H](C)NC(=O)[C@@H](C)N)C(=O)NCC(=O)N[C@@H](CC(C)C)C(=O)N1CCC[C@H]1C(=O)NCCCNc1cccc2c1C(=O)c1ccccc1C2=O.O=C(O)C(F)(F)F` here?
Answer: 191 °C

Question: For `CCCC[C@H](NC(=O)[C@H](C)N)C(=O)NCC(=O)N[C@@H](CC(C)C)C(=O)N1CCC[C@H]1C(=O)NCCCNc1cccc2c1C(=O)c1ccccc1C2=O.O=C(O)C(F)(F)F` (H-A[Nle]GLP-{NH(CH2)3NH(1-anthraquinonyl)}), which melting point is on record?
Answer: 185 °C

Question: With `CC(C)C[C@H](N)C(=O)NCC(=O)N1CCC[C@@H]1C(=O)NCCCNc1cccc2c1C(=O)c1ccccc1C2=O.O=C(O)C(F)(F)F` as the molecule, how does the melting point read?
Answer: 174 to 178 °C

Question: With `CC(C)C[C@H](NC(=O)[C@@H](N)Cc1ccc(O)cc1)C(=O)NCC(=O)N[C@@H](CC(C)C)C(=O)N1CCC[C@H]1C(=O)NCCCNc1cccc2c1C(=O)c1ccccc1C2=O.O=C(O)C(F)(F)F` (H-YLGLP-{NH(CH2)3NH(1-anthraquinonyl)}) as the molecule, how does the melting point read?
Answer: 184 to 188 °C

Question: For `CC[C@H](C)[C@H](NC(=O)[C@@H](N)Cc1ccccc1)C(=O)NCC(=O)N[C@@H](Cc1ccccc1)C(=O)N1CCC[C@@H]1C(=O)NCCCNc1cccc2c1C(=O)c1ccccc1C2=O.O=C(O)C(F)(F)F`, which melting point is on record?
Answer: 130 to 134 °C
